# Target: GpIIb/IIIa receptor (Homo sapiens, UniProt P05106+P08514)
# Assay: GpIIb/IIIa fibrinogen ELISA (inhibition of the fibrinogen-GpIIb/IIIa interaction)
# Format: binding
# Settings: isolated activated GpIIb/IIIa receptor coated at 2 μg/ml; fibrinogen ligand, 1 hour incubation; OD at 405 nm
# Experimental: Microtitre plates were coated overnight with 2 μg/ml isolated activated GpIIb/IIIa receptor. After the unbound receptor had been removed by several washing steps, the surface of the plate was blocked with 1% casein and washed again. The test substance was added at the necessary concentrations, the plates were subsequently incubated for 10 minutes while shaking in a linear shaker. The natural ligand of the GpIIb/IIIa receptor fibrinogen was added thereto. After incubating for 1 hour, unbound fibrinogen was removed by several washing steps and bound fibrinogen was determined in an ELISA reader by determining the change in optical density at 405 nm caused by a peroxidase conjugated monoclonal antibody. Inhibition of the fibrinogen-GpIIb/IIIa interaction leads to low optical densities. The IC50 value was determined by means of a concentration-effect curve.
# The GpIIb/IIIa fibrinogen ELISA is a modification of the assay which is described in the following references:
# Nachman, R. L. & Leung, L. L. K. (1982): Complex formation of platelet membrane glycoproteins IIb and IIIa with fibrinogen. J. Clin. Invest. 69: 263-269.
# Wright, P. S. et al. […]; An echistatin C-terminal peptide activated GpIIb/IIIa binding to fibrinogen, fibronectin, vitronectin and collagen type I and type IV. Biochem. J. 293: 262-267.
# GpIIb/IIIa receptor, sequence (P08514 32-887 limits assumed): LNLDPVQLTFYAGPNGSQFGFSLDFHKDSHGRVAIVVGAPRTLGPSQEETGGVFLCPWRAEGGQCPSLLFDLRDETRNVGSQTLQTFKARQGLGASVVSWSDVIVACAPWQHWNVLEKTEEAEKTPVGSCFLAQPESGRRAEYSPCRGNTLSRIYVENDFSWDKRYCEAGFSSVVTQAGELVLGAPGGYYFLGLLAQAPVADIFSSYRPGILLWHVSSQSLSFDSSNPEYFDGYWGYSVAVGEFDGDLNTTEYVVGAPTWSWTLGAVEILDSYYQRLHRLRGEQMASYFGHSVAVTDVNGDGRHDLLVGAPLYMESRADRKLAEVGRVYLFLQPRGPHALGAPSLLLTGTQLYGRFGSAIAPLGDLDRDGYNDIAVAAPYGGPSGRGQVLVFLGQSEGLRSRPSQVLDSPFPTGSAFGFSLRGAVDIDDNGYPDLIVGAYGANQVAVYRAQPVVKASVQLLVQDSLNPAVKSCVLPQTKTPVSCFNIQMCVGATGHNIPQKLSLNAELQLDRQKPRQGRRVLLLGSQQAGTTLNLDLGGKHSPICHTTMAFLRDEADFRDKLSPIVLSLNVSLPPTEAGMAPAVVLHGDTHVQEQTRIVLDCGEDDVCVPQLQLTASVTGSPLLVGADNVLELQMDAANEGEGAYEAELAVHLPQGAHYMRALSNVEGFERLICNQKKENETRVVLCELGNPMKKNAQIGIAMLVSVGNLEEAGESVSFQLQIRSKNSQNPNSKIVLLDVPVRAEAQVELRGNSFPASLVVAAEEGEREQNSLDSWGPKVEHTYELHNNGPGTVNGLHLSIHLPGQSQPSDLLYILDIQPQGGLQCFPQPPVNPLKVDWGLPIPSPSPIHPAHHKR
# GpIIb/IIIa receptor, sequence (P08514 891-1039 partner limits assumed): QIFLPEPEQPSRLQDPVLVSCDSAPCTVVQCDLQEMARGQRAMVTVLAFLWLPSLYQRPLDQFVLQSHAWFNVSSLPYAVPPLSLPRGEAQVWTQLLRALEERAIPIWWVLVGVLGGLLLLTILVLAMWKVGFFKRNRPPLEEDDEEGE
# GpIIb/IIIa receptor, sequence (P05106 27-788): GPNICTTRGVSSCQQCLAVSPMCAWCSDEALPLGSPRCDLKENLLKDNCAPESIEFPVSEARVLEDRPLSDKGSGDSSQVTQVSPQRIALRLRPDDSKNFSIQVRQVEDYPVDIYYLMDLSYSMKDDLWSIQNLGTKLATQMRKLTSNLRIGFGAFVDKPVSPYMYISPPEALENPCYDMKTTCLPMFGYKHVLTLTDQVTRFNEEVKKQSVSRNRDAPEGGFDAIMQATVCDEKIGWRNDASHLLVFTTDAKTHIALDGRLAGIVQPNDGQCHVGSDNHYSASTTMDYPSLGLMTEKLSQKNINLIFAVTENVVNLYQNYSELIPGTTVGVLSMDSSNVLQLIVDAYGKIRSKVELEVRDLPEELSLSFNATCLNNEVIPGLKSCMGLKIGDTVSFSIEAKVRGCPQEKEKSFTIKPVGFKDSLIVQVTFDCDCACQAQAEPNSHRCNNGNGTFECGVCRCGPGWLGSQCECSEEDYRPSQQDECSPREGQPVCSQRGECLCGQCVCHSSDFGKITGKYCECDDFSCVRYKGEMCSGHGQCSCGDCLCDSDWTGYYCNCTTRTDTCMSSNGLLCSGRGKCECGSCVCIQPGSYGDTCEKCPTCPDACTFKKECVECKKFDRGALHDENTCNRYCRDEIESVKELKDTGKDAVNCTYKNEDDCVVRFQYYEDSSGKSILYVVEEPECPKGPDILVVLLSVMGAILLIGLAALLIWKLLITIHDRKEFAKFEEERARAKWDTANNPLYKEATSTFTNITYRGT
row,SMILES,IC50 [nM]
1,"O=C(O)C1CCN(CC2CN(C3CCN(c4ccncc4)CC3)C(=O)O2)CC1 (racemic) [Example 2, 1-[(rac]-2-Oxo-3-(3,4,5,6-tetrahydro-2H-[1,4']bipyridinyl-4-yl)-oxazolidin-5-ylmethyl]-piperidine-4-carboxylic acid]",< 300
2,"O=C(O)C=C1CCN(CC2CN(C3CCN(c4ccncc4)CC3)C(=O)O2)CC1 (racemic) [Example 3, {1-[(rac)-2-Oxo-3-(3,4,5,6-tetrahydro-2H-[1,4']bipyridinyl-4yl)-oxazolidin-5-ylmethyl]-piperidin-4-ylidene}-acetic acid]",1400
3,O=C(O)C1CCN(CC2OC(=O)N(C3CCN(c4ccncc4)CC3)C2c2ccccc2)CC1 (stereo not drawn) [10 a)],300
4,O=C(O)C1CCC(O)(CC2CN(C3CCN(c4ccncc4)CC3)C(=O)O2)CC1 (stereo not drawn) [10 c)],< 300
5,"O=C(O)C1CCN(C[C@H]2CN(C3CCN(c4ccncc4)CC3)C(=O)O2)CC1 [Example 1, 1-[(5S)-2-oxo-3-(3,4,5,6-tetrahydro-2H-[1,4']bipyridinyl-4-yl)-oxazolidin-5-ylmethyl]-piperidine-4-carboxylic acid]",< 300
6,"O=C(O)CC1(O)CCN(CC2CN(C3CCN(c4ccncc4)CC3)C(=O)O2)CC1 (stereo not drawn) [Example 5, {4-Hydroxy-1-[2-oxo-3-(3,4,5,6-tetrahydro-2H-[1,4']bipyridinyl-4-yl)-oxazolidin-5-ylmethyl]-piperidin-4-yl}acetic acid]",1000
7,"CC1C(CN2CCC(C(=O)O)CC2)OC(=O)N1C1CCN(c2ccncc2)CC1 (stereo not drawn) [Example 7, 1-[4-Methyl-2-oxo-3-(3,4,5,6-tetrahydro-2H-[1,4']bipyridinyl-4-yl)-oxazolidin-5-ylmethyl]-piperidine-4-carboxylic acid]",< 300
8,"O=C(O)C1CCN(CC2CN(C3CCN(c4ccncn4)CC3)C(=O)O2)CC1 (stereo not drawn) [Example 8, 1-[2-Oxo-3-(1-pyrimidin-4-yl-piperidin-4-yl)-oxazolidin-5-ylmethyl]-piperidine-4-carboxylic acid]",300
9,"O=C(O)C1CCN(CC2CN(C3CCN(c4ccnc(NCc5ccccc5)n4)CC3)C(=O)O2)CC1 (stereo not drawn) [Example 9, 1-{3-[1-(2-Benzylamino-pyrimidin-4-yl)-piperidin-4-yl]-2-oxo-oxazolidin-5-ylmethyl}-piperidine-4-carboxylic acid]",70
10,"C[C@]1(CN2CCC(C(=O)O)CC2)CN(C2CCN(c3ccncc3)CC2)C(=O)O1 [No. 78, (5S)-1-[5-Methyl-2-oxo-3-(3,4,5,6-tetrahydro-2H-[1,4']bipyridinyl-4-yl)-oxazolidin-5-ylmethyl]-piperidine-4-carboxylic acid]",600
11,"O=C(O)C1CCN(CC2OC(=O)N(C3CCN(c4ccncc4)CC3)C2c2cccc(C(F)(F)F)c2)CC1 (stereo not drawn) [No. 79, 1-[2-Oxo-3-(3,4,5,6-tetrahydro-2H-[1,4']bipyridinyl-4-yl)-4-(3-trifluoromethylphenyl)-oxazolidin-5-ylmethyl]-piperidine-4-carboxylic acid]",1300
12,"O=C(O)C1CCN(CC2OC(=O)N(C3CCN(c4ccncc4)CC3)C2c2ccc(Cl)cc2)CC1 (stereo not drawn) [No. 80, 1-[4-(4-Chlorophenyl)-2-oxo-3-(3,4,5,6-tetrahydro-2H-[1,4']bipyridinyl-4-yl)-oxazolidin-5-ylmethyl]-piperidine-4-carboxylic acid]",500

# — US5972947A, “Oxazolidinone derivatives, processes for the production thereof and pharmaceutical agents containing these compounds” (Roche Diagnostics GmbH, priority 1995, dated 1999)
